pIC50: −log10 of the molar value. Activity calls are given as the source filed them. The rule behind the calls is not given here.
How the values were obtained:
CYP3A4 = CYP3A4 (Homo sapiens, UniProt P08684); assay: Inhibition of CYP3A4 in human liver microsomes assessed as reduction in midazolam 1-hydroxylase activity at 10 uM preincubated for 5 mins followed by addition of NADPH-regenerating system and measured after 15 mins by LC-MS/MS analysis relative to control; assay type: ADME; conditions: probe midazolam (1-hydroxylase activity), time 20 min
CYP3A4, sequence (P08684 whole entry): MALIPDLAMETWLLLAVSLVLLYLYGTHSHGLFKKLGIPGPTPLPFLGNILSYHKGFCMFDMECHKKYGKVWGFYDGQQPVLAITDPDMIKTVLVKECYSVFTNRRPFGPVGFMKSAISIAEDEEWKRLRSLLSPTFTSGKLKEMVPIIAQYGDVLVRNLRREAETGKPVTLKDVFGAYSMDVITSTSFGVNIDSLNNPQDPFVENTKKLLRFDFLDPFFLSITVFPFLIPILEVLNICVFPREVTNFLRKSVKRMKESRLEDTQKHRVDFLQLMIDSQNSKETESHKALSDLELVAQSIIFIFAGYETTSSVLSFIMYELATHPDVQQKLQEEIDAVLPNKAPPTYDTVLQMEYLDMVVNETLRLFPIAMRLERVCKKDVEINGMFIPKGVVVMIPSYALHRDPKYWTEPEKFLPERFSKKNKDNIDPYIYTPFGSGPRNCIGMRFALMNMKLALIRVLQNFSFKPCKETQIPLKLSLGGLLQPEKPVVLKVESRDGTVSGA

[1] = target: T1, Estrogen-related receptor gamma (Homo sapiens, UniProt P62508)
T1 sequence (P62508 whole entry): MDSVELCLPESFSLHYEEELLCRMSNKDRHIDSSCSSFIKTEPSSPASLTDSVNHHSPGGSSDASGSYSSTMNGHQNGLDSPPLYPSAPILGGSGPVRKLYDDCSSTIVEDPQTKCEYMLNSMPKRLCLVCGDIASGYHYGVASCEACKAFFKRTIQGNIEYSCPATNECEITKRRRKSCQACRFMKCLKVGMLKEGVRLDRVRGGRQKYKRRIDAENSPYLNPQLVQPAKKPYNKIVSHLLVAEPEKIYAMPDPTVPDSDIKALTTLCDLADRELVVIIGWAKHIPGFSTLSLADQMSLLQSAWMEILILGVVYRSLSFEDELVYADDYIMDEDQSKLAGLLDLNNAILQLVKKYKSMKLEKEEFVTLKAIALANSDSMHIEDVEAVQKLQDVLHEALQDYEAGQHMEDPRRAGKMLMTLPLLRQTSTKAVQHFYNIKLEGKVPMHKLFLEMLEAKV

CYP2C19 = CYP2C19 (Homo sapiens, UniProt P33261); assay: Inhibition of CYP2C19 in human liver microsomes assessed as reduction in S-mephenytoin 4-hydroxylase activity at 10 uM preincubated for 5 mins followed by addition of NADPH-regenerating system and measured after 15 mins by LC-MS/MS analysis relative to control; assay type: ADME; conditions: probe S-mephenytoin (4-hydroxylase activity), time 20 min
CYP2C19, sequence (P33261 whole entry): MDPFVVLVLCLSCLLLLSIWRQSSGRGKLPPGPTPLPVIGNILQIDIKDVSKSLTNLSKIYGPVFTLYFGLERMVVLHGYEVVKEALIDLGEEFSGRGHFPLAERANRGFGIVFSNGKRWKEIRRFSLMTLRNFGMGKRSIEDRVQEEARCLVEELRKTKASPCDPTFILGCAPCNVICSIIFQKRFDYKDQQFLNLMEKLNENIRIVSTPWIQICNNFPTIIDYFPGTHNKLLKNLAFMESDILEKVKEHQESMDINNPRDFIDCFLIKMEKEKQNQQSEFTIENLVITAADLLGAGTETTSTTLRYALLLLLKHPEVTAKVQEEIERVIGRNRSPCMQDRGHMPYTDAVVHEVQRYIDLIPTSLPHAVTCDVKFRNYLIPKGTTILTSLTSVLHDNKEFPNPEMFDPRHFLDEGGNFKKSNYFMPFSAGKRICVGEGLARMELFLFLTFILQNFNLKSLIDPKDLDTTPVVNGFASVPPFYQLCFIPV

[2] = Effective permeability of compound at 10 uM in PBS buffer at pH 7.4 after 5 hrs by LC-MS/MS analysis based PAMPA method; assay type: ADME; conditions: read-out: Peff
CYP2C9 = CYP2C9 (Homo sapiens, UniProt P11712); assay: Inhibition of CYP2C9 in human liver microsomes assessed as reduction in tolbutamide 4-hydroxylase activity at 10 uM preincubated for 5 mins followed by addition of NADPH-regenerating system and measured after 15 mins by LC-MS/MS analysis relative to control; assay type: ADME; conditions: probe tolbutamide (4-hydroxylase activity), time 20 min
CYP2C9, sequence (P11712 whole entry): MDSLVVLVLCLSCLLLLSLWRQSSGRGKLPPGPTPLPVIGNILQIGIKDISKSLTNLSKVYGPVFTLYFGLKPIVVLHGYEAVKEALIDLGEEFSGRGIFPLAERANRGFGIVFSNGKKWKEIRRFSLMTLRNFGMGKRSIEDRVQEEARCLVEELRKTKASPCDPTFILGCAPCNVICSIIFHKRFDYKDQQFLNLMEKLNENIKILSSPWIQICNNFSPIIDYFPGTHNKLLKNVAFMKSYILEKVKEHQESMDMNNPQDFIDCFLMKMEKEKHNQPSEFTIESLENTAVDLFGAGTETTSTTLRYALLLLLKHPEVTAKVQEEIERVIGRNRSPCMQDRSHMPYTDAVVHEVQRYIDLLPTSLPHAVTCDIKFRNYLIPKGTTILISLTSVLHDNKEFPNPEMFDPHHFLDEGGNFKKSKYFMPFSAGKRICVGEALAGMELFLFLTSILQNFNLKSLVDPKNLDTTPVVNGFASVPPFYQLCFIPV

CYP2D6 = CYP2D6 (Homo sapiens, UniProt P10635); assay: Inhibition of CYP2D6 in human liver microsomes assessed as reduction in dextromethorphan O-demethylase activity at 10 uM preincubated for 5 mins followed by addition of NADPH-regenerating system and measured after 15 mins by LC-MS/MS analysis relative to control; assay type: ADME; conditions: probe dextromethorphan (O-demethylase activity), time 20 min
CYP2D6, sequence (P10635 whole entry, the tested form may be a part): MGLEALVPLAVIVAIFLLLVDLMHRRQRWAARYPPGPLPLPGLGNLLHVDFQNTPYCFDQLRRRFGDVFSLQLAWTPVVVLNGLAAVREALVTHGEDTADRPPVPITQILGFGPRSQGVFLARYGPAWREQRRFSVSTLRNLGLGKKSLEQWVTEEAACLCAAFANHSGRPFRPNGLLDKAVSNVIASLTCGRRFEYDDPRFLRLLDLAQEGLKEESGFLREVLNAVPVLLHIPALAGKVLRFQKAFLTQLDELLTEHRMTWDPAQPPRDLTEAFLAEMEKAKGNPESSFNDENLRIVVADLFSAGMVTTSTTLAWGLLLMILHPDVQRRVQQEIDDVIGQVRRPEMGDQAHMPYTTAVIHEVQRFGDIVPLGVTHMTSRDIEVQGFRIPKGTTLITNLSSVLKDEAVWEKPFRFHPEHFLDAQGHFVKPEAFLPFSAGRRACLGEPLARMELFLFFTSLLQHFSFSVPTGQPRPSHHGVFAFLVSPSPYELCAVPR

[3] = target: T2, Steroid hormone receptor ERR1 (Homo sapiens, UniProt P11474); assay: Binding affinity to GST-tagged ERRalpha LBD (unknown origin) using fluorescein PGC1alpha as coactivator incubated for 1 hr by LanthaScreen TR-FRET co-regulator assay
T2 sequence (P11474 whole entry): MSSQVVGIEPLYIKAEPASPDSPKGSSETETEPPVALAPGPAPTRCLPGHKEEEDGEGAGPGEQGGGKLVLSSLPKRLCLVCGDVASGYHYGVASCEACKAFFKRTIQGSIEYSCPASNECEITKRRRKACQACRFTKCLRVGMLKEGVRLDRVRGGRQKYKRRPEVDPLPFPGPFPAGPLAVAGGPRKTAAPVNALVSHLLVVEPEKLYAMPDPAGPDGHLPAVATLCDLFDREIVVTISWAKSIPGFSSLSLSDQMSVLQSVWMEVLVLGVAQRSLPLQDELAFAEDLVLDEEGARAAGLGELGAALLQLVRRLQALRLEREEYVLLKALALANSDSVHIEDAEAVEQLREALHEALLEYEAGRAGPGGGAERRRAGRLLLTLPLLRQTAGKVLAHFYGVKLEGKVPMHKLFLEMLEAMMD

CYP1A2 = target: T3, CYP1A2 (Homo sapiens, UniProt P05177); assay: Inhibition of CYP1A2 in human liver microsomes assessed as reduction in phenacetin O-deethylase activity at 10 uM preincubated for 5 mins followed by addition of NADPH-regenerating system and measured after 15 mins by LC-MS/MS analysis relative to control; assay type: ADME; conditions: probe phenacetin (O-deethylase activity), time 20 min
T3 sequence (P05177 whole entry): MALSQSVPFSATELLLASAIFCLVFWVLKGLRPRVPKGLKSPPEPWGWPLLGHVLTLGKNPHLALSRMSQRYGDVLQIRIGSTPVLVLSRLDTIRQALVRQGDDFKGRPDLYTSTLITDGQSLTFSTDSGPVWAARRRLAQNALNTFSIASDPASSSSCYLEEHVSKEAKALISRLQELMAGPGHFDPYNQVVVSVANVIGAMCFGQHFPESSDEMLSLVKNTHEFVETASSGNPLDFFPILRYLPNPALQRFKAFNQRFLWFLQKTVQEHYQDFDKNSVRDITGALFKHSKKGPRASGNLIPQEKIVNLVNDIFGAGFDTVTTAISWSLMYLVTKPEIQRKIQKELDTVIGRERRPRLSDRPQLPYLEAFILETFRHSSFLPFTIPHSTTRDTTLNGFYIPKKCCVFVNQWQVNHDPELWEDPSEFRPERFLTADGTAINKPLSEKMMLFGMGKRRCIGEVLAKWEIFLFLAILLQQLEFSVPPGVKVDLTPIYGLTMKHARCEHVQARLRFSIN

[4] = Metabolic stability in rat liver microsome assessed as parent compound remaining at 1 uM incubated for 30 mins in presence of NADPH generating system by LC-MS/MS analysis; assay type: ADME; conditions: liver microsomes, read-out: Stabilty
[5] = Metabolic stability in human liver microsome assessed as parent compound remaining at 1 uM incubated for 30 mins in presence of NADPH generating system by LC-MS/MS analysis; assay type: ADME; conditions: liver microsomes, read-out: Stabilty
[6] = target: T4, Steroid hormone receptor ERR2 (Homo sapiens, UniProt O95718); assay: Binding affinity to GST-tagged ERRbeta LBD (unknown origin) using fluorescein PGC1alpha as coactivator incubated for 1 hr by LanthaScreen TR-FRET co-regulator assay
T4 sequence (O95718 whole entry): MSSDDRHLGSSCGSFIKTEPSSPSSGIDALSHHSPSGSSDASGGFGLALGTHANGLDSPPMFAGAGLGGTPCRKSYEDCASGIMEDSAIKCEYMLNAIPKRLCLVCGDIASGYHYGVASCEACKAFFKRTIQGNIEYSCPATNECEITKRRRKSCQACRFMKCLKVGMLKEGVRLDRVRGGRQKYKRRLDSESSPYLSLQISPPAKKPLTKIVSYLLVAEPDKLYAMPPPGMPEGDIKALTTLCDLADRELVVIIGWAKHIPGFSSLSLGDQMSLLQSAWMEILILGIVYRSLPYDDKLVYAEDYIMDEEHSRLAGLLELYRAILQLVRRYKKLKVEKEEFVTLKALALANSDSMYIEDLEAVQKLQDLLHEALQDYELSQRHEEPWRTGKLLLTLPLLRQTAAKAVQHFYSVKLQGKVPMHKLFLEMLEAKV

Estrogen receptor = target: T5, Estrogen receptor (Homo sapiens, UniProt P03372); assay: Binding affinity to GST-tagged ERalpha LBD (unknown origin) using fluorescein PGC1alpha as coactivator incubated for 1 hr by LanthaScreen TR-FRET co-regulator assay
T5 sequence (P03372 whole entry): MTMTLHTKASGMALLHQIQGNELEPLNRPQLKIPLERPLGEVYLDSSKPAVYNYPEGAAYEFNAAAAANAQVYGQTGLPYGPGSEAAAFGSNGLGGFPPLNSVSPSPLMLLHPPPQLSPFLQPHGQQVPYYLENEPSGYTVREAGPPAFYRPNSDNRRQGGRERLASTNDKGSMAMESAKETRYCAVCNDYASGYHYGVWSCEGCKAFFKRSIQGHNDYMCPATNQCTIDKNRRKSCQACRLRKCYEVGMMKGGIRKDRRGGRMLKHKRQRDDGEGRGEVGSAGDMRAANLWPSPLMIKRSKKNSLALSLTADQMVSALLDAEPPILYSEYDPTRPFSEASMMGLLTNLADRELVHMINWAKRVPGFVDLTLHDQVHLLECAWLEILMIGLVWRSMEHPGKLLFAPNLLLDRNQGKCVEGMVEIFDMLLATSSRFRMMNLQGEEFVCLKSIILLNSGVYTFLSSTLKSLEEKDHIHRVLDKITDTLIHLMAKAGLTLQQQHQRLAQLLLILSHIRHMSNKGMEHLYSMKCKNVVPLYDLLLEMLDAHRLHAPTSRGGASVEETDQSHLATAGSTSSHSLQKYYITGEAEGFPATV

[7] = target: Voltage-gated inwardly rectifying potassium channel KCNH2 (Homo sapiens, UniProt Q12809); assay: (§1) Inhibition of human ERG measured after 4 hrs by fluorescence polarization assay
Voltage-gated inwardly rectifying potassium channel KCNH2, sequence (Q12809 whole entry): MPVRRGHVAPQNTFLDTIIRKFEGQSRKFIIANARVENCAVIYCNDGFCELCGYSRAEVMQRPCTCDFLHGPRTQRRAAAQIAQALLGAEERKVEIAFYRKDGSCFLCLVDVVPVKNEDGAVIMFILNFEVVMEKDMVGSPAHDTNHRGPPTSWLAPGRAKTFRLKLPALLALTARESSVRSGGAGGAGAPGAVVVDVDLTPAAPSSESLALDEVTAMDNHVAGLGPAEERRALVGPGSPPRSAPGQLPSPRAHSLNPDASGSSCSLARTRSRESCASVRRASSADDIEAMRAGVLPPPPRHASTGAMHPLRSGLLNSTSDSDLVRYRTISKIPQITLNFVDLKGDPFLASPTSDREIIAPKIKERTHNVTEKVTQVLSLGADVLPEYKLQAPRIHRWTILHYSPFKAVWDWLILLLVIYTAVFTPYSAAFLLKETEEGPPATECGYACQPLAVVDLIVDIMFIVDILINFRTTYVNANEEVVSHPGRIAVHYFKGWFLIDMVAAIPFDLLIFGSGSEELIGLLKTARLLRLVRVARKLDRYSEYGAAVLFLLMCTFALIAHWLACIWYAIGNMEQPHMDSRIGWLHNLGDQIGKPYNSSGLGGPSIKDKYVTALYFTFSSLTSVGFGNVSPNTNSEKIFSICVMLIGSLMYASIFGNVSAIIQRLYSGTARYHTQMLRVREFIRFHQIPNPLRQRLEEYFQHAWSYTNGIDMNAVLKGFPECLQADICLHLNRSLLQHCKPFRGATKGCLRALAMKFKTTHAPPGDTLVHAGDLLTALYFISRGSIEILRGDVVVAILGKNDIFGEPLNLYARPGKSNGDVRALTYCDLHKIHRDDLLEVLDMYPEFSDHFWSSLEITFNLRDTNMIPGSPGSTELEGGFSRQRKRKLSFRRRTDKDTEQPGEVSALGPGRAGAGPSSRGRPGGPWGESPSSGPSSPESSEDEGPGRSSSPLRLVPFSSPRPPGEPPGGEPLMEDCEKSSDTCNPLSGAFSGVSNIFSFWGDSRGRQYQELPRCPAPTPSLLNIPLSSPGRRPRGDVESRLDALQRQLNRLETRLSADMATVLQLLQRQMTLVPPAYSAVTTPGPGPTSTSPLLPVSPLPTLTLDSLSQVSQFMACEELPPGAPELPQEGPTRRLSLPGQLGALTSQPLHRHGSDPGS

hERG (KCNH2) = hERG (KCNH2) (Homo sapiens, UniProt Q12809); assay: as §1; conditions: human
hERG (KCNH2), sequence (Q12809 whole entry): as above

CAL-62 [8] = assay: Antiproliferative activity against human CAL-62 cells at 10 uM assessed as reduction in cell proliferation; assay type: functional, cell-based
[9] = Volume of distribution at steady state in Sprague-Dawley rat at 10 mg/kg, po or 1 mg/kg, iv measured upto 8 hrs by LC-MS/MS analysis; assay type: ADME, organism-based; conditions: in vivo, read-out: Vdss
CAL-62 [10] = assay: Antiproliferative activity against human CAL-62 cells at 20 uM assessed as reduction in cell proliferation; assay type: functional, cell-based
[11] = Half-life in Sprague-Dawley rat at 10 mg/kg, po or 1 mg/kg, iv measured upto 8 hrs by LC-MS/MS analysis; assay type: ADME, organism-based; conditions: in vivo
[12] = Clearance in Sprague-Dawley rat at 10 mg/kg, po or 1 mg/kg, iv measured upto 8 hrs by LC-MS/MS analysis; assay type: ADME, organism-based; conditions: in vivo
[13] = Oral bioavailability in Sprague-Dawley rat at 10 mg/kg, administered via gavage measured upto 8 hrs by LC-MS/MS analysis; assay type: ADME, organism-based; conditions: in vivo
CAL-62 [14] = assay: Potentiation of radioiodine therapy-mediated cytotoxicity against human CAL-62 cells assessed as colony forming units level in presence of [131I] at 20 uM preincubated for 24 hrs followed by [131I] addition and measured after 6 hrs by crystal violet staining based assay (reference value: 97.5 +/- 2%); assay type: functional; conditions: time 30 hrs
CAL-62 [15] = assay: Anticlonogenic activity against human CAL-62 cells assessed as colony forming units level in absence of [131I] at 20 uM incubated for 24 hrs by crystal violet staining based assay; assay type: ADME, cell-based; conditions: cal-62, 24 h

Row | SMILES | inhibition at 0.25 h, 10 µM (CYP3A4) | pIC50 [1] | inhibition at 0.25 h, 10 µM (CYP2C19) | Papp at 5 h, 10 µM [2] | inhibition at 0.25 h, 10 µM (CYP2C9) | inhibition at 0.25 h, 10 µM (CYP2D6) | pIC50 [3] | inhibition at 0.25 h, 10 µM (CYP1A2) | remaining at 0.5 h, 1 µM [4] | remaining at 0.5 h, 1 µM [5] | pIC50 [6] | pIC50 (Estrogen receptor) | pIC50 [7] | clearance [12] | other results
1 | CN1CCCC1CCOc1ccc(/C(=C(/CCCO)c2ccccc2)c2ccc(Br)cc2)cc1.Cl (stereo unspecified) | 9.8% | 6.53 | 10.6% | 0.21 ×10⁻⁶ cm/s | 3% | 0% | 5.29 | 0% | 59.9% | 67.3% | 5.05 | 5.53 | 5.77 | – | –
2 | CN1CCC[C@@H]1COc1ccc(/C(=C(/CCCO)c2ccccc2)c2ccc(O)cc2)cc1.Cl | 20.6% | – | 17.4% | 0.7 ×10⁻⁶ cm/s | 13.3% | 6.4% | < 5.00 | 1.9% | 27.7% | 29% | < 5.00 | 5.43 | – | – | IC50 at 4 h (hERG (KCNH2)): > 30 µM
3 | CN1CCC[C@H]1COc1ccc(/C(=C(/CCCO)c2ccccc2)c2ccc(Br)cc2)cc1.Cl | 55% | – | 30.5% | 0.93 ×10⁻⁶ cm/s | 37.3% | 35.6% | – | 9.6% | 66.2% | 61.2% | – | – | 5.33 | 74.4 mL/min/kg | Activity (CAL-62 [8]): inactive; Vd [9]: 16.1 L/kg; Activity (CAL-62 [10]): Active; half-life [11]: 3.4 h; bioavailability [13]: 38.2%
4 | CN1CCC[C@H]1COc1ccc(/C(=C(/CCCO)c2ccccc2)c2ccc(O)cc2)cc1.Cl | 24.6% | – | 16.8% | 2.11 ×10⁻⁶ cm/s | 37.2% | 9.3% | < 5.00 | 0% | 30.3% | 24.8% | 5.40 | 5.97 | – | – | Activity (CAL-62 [14]): 67.4%; Activity (CAL-62 [15]): 93%
5 | CN(C)CCOc1ccc(/C(=C(/CCCO)c2ccccc2)c2ccc(O)cc2)cc1 | 17% | – | 21.8% | 0.23 ×10⁻⁶ cm/s | 27.1% | 17.7% | – | 16.4% | – | – | – | – | – | 45.6 mL/min/kg | –
6 | CN1CCCC1CCOc1ccc(/C(=C(/CCCO)c2ccccc2)c2ccc(O)cc2)cc1.Cl (stereo unspecified) | 16.3% | 7.70 | 18.2% | 0.01 ×10⁻⁶ cm/s | 24.6% | 18.3% | < 5.00 | 2.1% | 22.5% | 37.3% | 5.22 | – | – | – | –

Source: ChEMBL document CHEMBL4680094, “Insights of a Lead Optimization Study and Biological Evaluation of Novel 4-Hydroxytamoxifen Analogs as Estrogen-Related Receptor γ (ERRγ) Inverse Agonists” (J Med Chem, 2016)
